{"source": "patent US20060034856A1", "about": "“Epha2 antigen t epitopes” (priority 2002, published 2006)", "key": {"HLA-A*0201 [1]": {"target": "T1, HLA-A*0201 (Homo sapiens, UniProt P04439, D140Y/D185E/D98H/E176V/E277Q/G131W/G231S/I119V/I121R/I166T/I218V/L300P/L318F/N151K/N90K/P208A/P217A/Q86G/Q94H/R138H/R169H/T345S)", "details": "ratio of peptide to reference peptide (HIVpol 589) concentration inducing 20% of fluorescence of 100 μM reference; T2 cells; lower RA = stronger binding; mean of at least three experiments", "procedure": "The immunogenicity of these peptides was evaluated by measuring their affinity for HLA-A*0201. This is defined by two parameters: the relative affinity (RA) which reflects the ability of the peptides to bind to HLA-A*0201, and the rate of dissociation of the HLA-A*0201/peptide complexes (DC50), which reflects their stability.\nHuman T2 cells (Firat et al., Eur. J. Immunol., 29, 3112, 1999) (3×10^5 cells/ml), which are deficient in TAP transporters, are incubated at 37° C. for 16 hours with various concentrations (100 μM, 10 μM, 1 μM, 0.1 μM) of each test peptide, in serum-free RPMI 1640 medium supplemented with 100 ng/ml of human β2-microglobulin. Next, they are washed twice and labeled with the monoclonal antibody BB7.2 (Parham et al., Hum. Immunol., 3, 4, 277-299, 1981) which is specific for the HLA-A*0201 molecule, and then with a goat anti-mouse Ig antibody coupled to fluorescein isothiocyanate (FITC).\nThese cells are then analyzed by flow cytometry. […] The relative affinity (RA) is defined as the ratio of the concentration of each peptide that induces 20% of the fluorescence obtained with 100 μM of the reference peptide, to the concentration of the reference peptide that induces 20% of the fluorescence obtained with 100 μM of said reference peptide. […] The mean RA for each peptide is determined from at least three independent experiments."}, "HLA-A*0201 [2]": {"target": "T1, HLA-A*0201", "test": "Stability of HLA-A*0201/peptide complexes (DC50) on T2 cells", "assay_type": "binding", "design": "endogenous in cells; host or cells: human T2 cells (TAP-deficient)", "details": "time for loss of 50% of HLA-A*0201/peptide complexes stabilized at t=0, 100 μM peptide, 37° C.", "procedure": "The immunogenicity of these peptides was evaluated by measuring their affinity for HLA-A*0201. This is defined by two parameters: the relative affinity (RA) which reflects the ability of the peptides to bind to HLA-A*0201, and the rate of dissociation of the HLA-A*0201/peptide complexes (DC50), which reflects their stability. The high-affinity peptides (RA<5 and DC50>2 hrs) are potentially immunogenic, unlike the low-affinity peptides (RA>5 and DC50<2 hrs).\nT2 cells (10^6/ml) are incubated overnight at 37° C. with 100 μM of each test peptide, in serum-free RPMI 1640 medium supplemented with 100 ng/ml of human β2-microglobulin. Next, they are washed four times in order to remove the free peptides, incubated with BREFELDIN A (Sigma; 10 μg/ml) for one hour in order to prevent the expression at their surface of newly synthesized HLA-A*0201 molecules, washed, and incubated at 37° C. for 0, 2, 4, 6 or 8 hours in the presence of BREFELDIN A (0.5 μg/ml). For each incubation time, the cells are then labeled, as indicated above, with the BB7.2 antibody and analyzed by flow cytometry in order to evaluate the amount of peptide/HLA-A*0201 complex present at their surface. This amount is evaluated by means of the formula: (mean fluorescence of the T2 cells preincubated with the peptide−mean fluorescence of the T2 cells treated under similar conditions in the absence of peptide). The DC50 (dissociation complex: DC) is defined as being the time (in hours) required for the loss of 50% of the HLA-A*0201/peptide complexes which are stabilized at t=0."}, "[3]": {"target": "T2, HLA-A*0201 molecule on human T2 cells (human)", "T2 construct": "MHC class I molecule on T2 cells", "test": "T2 cell HLA-A*0201 stabilisation, flow cytometry with BB7.2; peptide concentration giving 20% of reference fluorescence, relative to HIVpol 589"}}, "note": "Ends that are not written are not given here.", "data": [{"molecule": "DMPIYMYSV [p61]", "values": [{"measurement": "RA (relative affinity)", "setting": "HLA-A*0201 [1]", "value": ">10"}]}, {"molecule": "IMNDMPIYM [p58, IMNDMPIYM]", "values": [{"measurement": "RA (relative affinity)", "setting": "HLA-A*0201 [1]", "value": 1}, {"measurement": "DC50", "setting": "HLA-A*0201 [2]", "value": 4, "unit": "h"}]}, {"molecule": "TLADFDPRV [p883, TLADFDPRV]", "values": [{"measurement": "DC50", "setting": "HLA-A*0201 [2]", "value": "2 to 4", "unit": "h"}]}, {"molecule": "VLAGVGFFI [p550, VLAGVGFFI]", "values": [{"measurement": "RA (relative affinity)", "setting": "HLA-A*0201 [1]", "value": 1}, {"measurement": "DC50", "setting": "HLA-A*0201 [2]", "value": "4 to 6", "unit": "h"}]}, {"molecule": "VLLLVLAGV [p546, VLLLVLAGV]", "values": [{"measurement": "RA (relative affinity)", "setting": "HLA-A*0201 [1]", "value": 1.4}, {"measurement": "DC50", "setting": "HLA-A*0201 [2]", "value": "4 to 6", "unit": "h"}]}, {"molecule": "YMPIYMYSV [p61Y, YMPIYMYSV]", "values": [{"measurement": "RA (relative affinity)", "setting": "HLA-A*0201 [1]", "value": 1.5}]}, {"molecule": "IMNDMPIYM (Synthetic 9-mer fragment of the human EphA2 antigen (SYNT:EM), purity >85%)", "note": "[p58 peptide of EphA2]", "values": [{"measurement": "RA (relative affinity)", "setting": "[3]", "value": "1 ratio to reference peptide"}]}, {"molecule": "VLLLVLAGV (Synthetic 9-mer fragment of the human EphA2 antigen)", "note": "[p546 peptide of EphA2]", "values": [{"measurement": "RA (relative affinity)", "setting": "[3]", "value": "1.4 ratio to reference peptide"}]}, {"molecule": "TLADFDPRV (Synthetic 9-mer fragment of the human EphA2 antigen)", "note": "[p883 peptide of EphA2]", "values": [{"measurement": "RA (relative affinity)", "setting": "[3]", "value": "2.2 ratio to reference peptide"}]}, {"molecule": "VLAGVGFFI (Synthetic 9-mer fragment of the human EphA2 antigen)", "note": "[p550 peptide of EphA2]", "values": [{"measurement": "RA (relative affinity)", "setting": "[3]", "value": "1 ratio to reference peptide"}]}, {"molecule": "YMPIYMYSV (Variant of p61 in which the N-terminal aspartic acid is replaced by tyrosine)", "note": "[p61Y variant peptide]", "values": [{"measurement": "RA (relative affinity)", "setting": "[3]", "value": "1.5 ratio to reference peptide"}]}]}
